Measurements: patent US10906873B2, “Substituted cyclic amides as herbicides” (FMC Corporation, priority 2015, dated 2021)

Experiments:
Assay type in all cases: in vivo
[1] = system: ryegrass, It. (Italian ryegrass, Lolium multiflorum); assay: Test A postemergence, ryegrass, It.; conditions: 0 to 100 scale
Procedure, shortened: (§1)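 Visual injury rating, 0–100 scale (100 = complete control), ~10 d after treatment, relative to untreated controls. Greenhouse pots, loam soil/sand; compound in solvent mix with surfactant applied as soil spray preemergence or foliar postemergence at 1–2-leaf stage.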

[2] = system: rice (Oryza sativa); assay: Test B flooded paddy test, rice; conditions: Flood, scale of 0 to 100 where 0 is no effect and 100 is complete control, 13 to 15 d
Procedure, shortened: (§2)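 Plants grown to the 2-leaf stage. At treatment, pots were flooded to 3 cm above the soil, compound was applied directly to the paddy water, and that depth was held throughout. After 13 to 15 d in the greenhouse, response was rated visually against controls on a 0 (no effect) to 100 (complete control) scale.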

[3] = system: ducksalad (Heteranthera limosa); assay: Test B flooded paddy test, ducksalad; conditions: Flood, scale of 0 to 100 where 0 is no effect and 100 is complete control, 13 to 15 d
Procedure, shortened: as §2

[4] = system: pigweed (Amaranthus retroflexus); assay: Test A postemergence, pigweed; conditions: 0 to 100 scale
Procedure, shortened: as §1

[5] = system: blackgrass (Alopecurus myosuroides); assay: Test A postemergence, blackgrass; conditions: 0 to 100 scale
Procedure, shortened: as §1

[6] = system: barnyardgrass (Echinochloa crus-galli); assay: Test A preemergence, barnyardgrass; conditions: 0 to 100 scale
Procedure, shortened: as §1

[7] = system: barnyardgrass (Echinochloa crus-galli); assay: Test B flooded paddy test, barnyardgrass; conditions: Flood, scale of 0 to 100 where 0 is no effect and 100 is complete control, 13 to 15 d
Procedure, shortened: as §2

[8] = system: ragweed (common ragweed, Ambrosia elatior); assay: Test A preemergence, ragweed; conditions: 0 to 100 scale
Procedure, shortened: as §1

[9] = system: foxtail, giant (giant foxtail, Setaria faberii); assay: Test A postemergence, foxtail, giant; conditions: 0 to 100 scale
Procedure, shortened: as §1

[10] = system: pigweed (Amaranthus retroflexus); assay: Test A preemergence, pigweed; conditions: 0 to 100 scale
Procedure, shortened: as §1

[11] = system: corn (Zea mays); assay: Test A postemergence, corn; conditions: 0 to 100 scale
Procedure, shortened: as §1

[12] = system: ragweed (common ragweed, Ambrosia elatior); assay: Test A postemergence, ragweed; conditions: 0 to 100 scale
Procedure, shortened: as §1

[13] = system: kochia (Kochia scoparia); assay: Test A preemergence, kochia; conditions: 0 to 100 scale
Procedure, shortened: as §1

[14] = system: foxtail, giant (giant foxtail, Setaria faberii); assay: Test A preemergence, foxtail, giant; conditions: 0 to 100 scale
Procedure, shortened: as §1

[15] = system: sedge, umbrella (small-flower umbrella sedge, Cyperus difformis); assay: Test B flooded paddy test, sedge, umbrella; conditions: Flood, scale of 0 to 100 where 0 is no effect and 100 is complete control, 13 to 15 d
Procedure, shortened: as §2

[16] = system: ryegrass, It. (Italian ryegrass, Lolium multiflorum); assay: Test A preemergence, ryegrass, It.; conditions: 0 to 100 scale
Procedure, shortened: as §1

[17] = system: wheat (Triticum aestivum); assay: Test A postemergence, wheat; conditions: 0 to 100 scale
Procedure, shortened: as §1

[18] = system: kochia (Kochia scoparia); assay: Test A postemergence, kochia; conditions: 0 to 100 scale
Procedure, shortened: as §1

[19] = system: barnyardgrass (Echinochloa crus-galli); assay: Test A postemergence, barnyardgrass; conditions: 0 to 100 scale
Procedure, shortened: as §1

[20] = system: galium (catchweed bedstraw, Galium aparine); assay: Test A postemergence, galium; conditions: 0 to 100 scale
Procedure, shortened: as §1

SMILES	Plant response rating, Ryegrass, It. ([1]; 125 g ai/ha)	Plant response rating, Ryegrass, It. ([1]; 500 g ai/ha)	Plant response rating, Pigweed ([4]; 125 g ai/ha)	Plant response rating, Pigweed ([4]; 500 g ai/ha)	Plant response rating, Blackgrass ([5]; 125 g ai/ha)	Plant response rating, Blackgrass ([5]; 500 g ai/ha)	Plant response rating, Barnyardgrass ([6]; 125 g ai/ha)	Plant response rating, Barnyardgrass ([6]; 500 g ai/ha)	Plant response rating, Ragweed ([8]; 125 g ai/ha)	Plant response rating, Ragweed ([8]; 500 g ai/ha)	Plant response rating, Foxtail, Giant ([9]; 125 g ai/ha)	Plant response rating, Foxtail, Giant ([9]; 500 g ai/ha)	Plant response rating, Pigweed ([10]; 125 g ai/ha)	Plant response rating, Pigweed ([10]; 500 g ai/ha)	Plant response rating, Corn ([11]; 125 g ai/ha)	Plant response rating, Corn ([11]; 500 g ai/ha)	Plant response rating, Ragweed ([12]; 125 g ai/ha)	Plant response rating, Ragweed ([12]; 500 g ai/ha)	Plant response rating, Kochia ([13]; 125 g ai/ha)	Plant response rating, Kochia ([13]; 500 g ai/ha)	other results
O=C1NCC(Cc2ccc(F)c(F)c2)C1C(=O)Nc1cccc(F)c1F (stereo not drawn) [Compound 12]	0	0	0	0	0	0	0	60	0	0	0	0	0	0	0	0	0	0	0	0	Plant response rating, Rice ([2]; 500 g ai/ha): 0; Plant response rating, Ducksalad ([3]; 500 g ai/ha): 0; Plant response rating, Barnyardgrass ([7]; 500 g ai/ha): 0; Plant response rating, Foxtail, Giant ([14]; 125 g ai/ha): 0; Plant response rating, Foxtail, Giant ([14]; 500 g ai/ha): 60; Plant response rating, Sedge, Umbrella ([15]; 500 g ai/ha): 0; Plant response rating, Ryegrass, It. ([16]; 125 g ai/ha): 0; Plant response rating, Ryegrass, It. ([16]; 500 g ai/ha): 0; Plant response rating, Wheat ([17]; 125 g ai/ha): 0; Plant response rating, Wheat ([17]; 500 g ai/ha): 0; Plant response rating, Kochia ([18]; 125 g ai/ha): 0; Plant response rating, Kochia ([18]; 500 g ai/ha): 0; Plant response rating, Barnyardgrass ([19]; 125 g ai/ha): 0; Plant response rating, Barnyardgrass ([19]; 500 g ai/ha): 0; Plant response rating, Galium ([20]; 125 g ai/ha): 0; Plant response rating, Galium ([20]; 500 g ai/ha): 0
O=C(CCC1CNC(=O)C1C(=O)Nc1ccccc1F)Nc1ccc(F)cc1 (stereo not drawn) [Compound 15]	0	0	0	0	0	0	0	0	0	0	0	0	0	0	0	0	0	0	0	0	Plant response rating, Rice ([2]; 500 g ai/ha): 0; Plant response rating, Ducksalad ([3]; 500 g ai/ha): 70; Plant response rating, Barnyardgrass ([7]; 500 g ai/ha): 0; Plant response rating, Foxtail, Giant ([14]; 125 g ai/ha): 0; Plant response rating, Foxtail, Giant ([14]; 500 g ai/ha): 0; Plant response rating, Sedge, Umbrella ([15]; 500 g ai/ha): 0; Plant response rating, Ryegrass, It. ([16]; 125 g ai/ha): 0; Plant response rating, Ryegrass, It. ([16]; 500 g ai/ha): 0; Plant response rating, Wheat ([17]; 125 g ai/ha): 0; Plant response rating, Wheat ([17]; 500 g ai/ha): 0; Plant response rating, Kochia ([18]; 125 g ai/ha): 0; Plant response rating, Kochia ([18]; 500 g ai/ha): 0; Plant response rating, Barnyardgrass ([19]; 125 g ai/ha): 0; Plant response rating, Barnyardgrass ([19]; 500 g ai/ha): 0; Plant response rating, Galium ([20]; 125 g ai/ha): 0; Plant response rating, Galium ([20]; 500 g ai/ha): 0
O=C1NCC(C#Cc2ccc(F)cc2)C1C(=O)Nc1cccc(F)c1F (stereo not drawn) [Compound 16]	0	0	0	0	0	0	20	90	0	0	20	40	0	0	0	0	0	0	0	0	Plant response rating, Rice ([2]; 250 g ai/ha): 0; Plant response rating, Ducksalad ([3]; 250 g ai/ha): 70; Plant response rating, Barnyardgrass ([7]; 250 g ai/ha): 0; Plant response rating, Foxtail, Giant ([14]; 125 g ai/ha): 60; Plant response rating, Foxtail, Giant ([14]; 500 g ai/ha): 90; Plant response rating, Sedge, Umbrella ([15]; 250 g ai/ha): 0; Plant response rating, Ryegrass, It. ([16]; 125 g ai/ha): 0; Plant response rating, Ryegrass, It. ([16]; 500 g ai/ha): 0; Plant response rating, Wheat ([17]; 125 g ai/ha): 0; Plant response rating, Wheat ([17]; 500 g ai/ha): 0; Plant response rating, Kochia ([18]; 125 g ai/ha): 0; Plant response rating, Kochia ([18]; 500 g ai/ha): 0; Plant response rating, Barnyardgrass ([19]; 125 g ai/ha): 40; Plant response rating, Barnyardgrass ([19]; 500 g ai/ha): 60; Plant response rating, Galium ([20]; 125 g ai/ha): 0; Plant response rating, Galium ([20]; 500 g ai/ha): 0
